# Measurements as given in patent US9987321B2, “Use of flaxseed and flaxseed derivatives for treatment of neurological disorders and viral diseases” (The Trustees of the University of Pennsylvania, priority 2012, dated 2018).
# What was measured:
# [1] = Reducing power antioxidant assay; settings: compared to SDG
# Procedure: The antioxidant activity SDG was determined by assessing its reducing power, an activity related to its ability to reduce an oxidized atom or molecule and compared with that of the natural antioxidants ascorbic acid and alpha-tocopherol (Panel A).
# [2] = system: primary rat cortical neurons; experiment: MAP2 cell-based ELISA of neuronal death and damage after ART compounds
# Procedure: (§1) Relative neuronal damage as indicated by MAP2 cell-based ELISA in neurons treated with the indicated concentrations of ART compounds, ritonavir (RIT), Saquinavir (Sag), and Zidovudine (AZT). Cells were treated for 72 hours with ritonavir (10 μM or 25 μM), ritonavir (10 μM)+Saquinivir (1 μM), AZT (25 μM)+ritonavir+Saquinavir. One hour before and two hours after cART drug treatment, half of the wells of a 96 well plate of neuroglial cultures were also treated with secoisolariciresinol diglucoside (SDG) (25 μM, 50 μM, or 100 μM) where indicated. 72 hours later, a MAP2 cell-based ELISA assay was used to quantify neuronal death and damage. Untreated cultures in addition to vehicle (0.08% DMSO) treated cultures with and without SDG were used as controls. The value for untreated cultures was set to 100%, and SDG and cART treated bands are expressed as a percent change from untreated.
# as §1, with “Cells” for “Relative neuronal damage as indicated by MAP2 cell-based ELISA in neurons treated with the indicated concentrations of ART compounds, ritonavir (RIT), Saquinavir (Sag), and Zidovudine (AZT). Cells”, “SDG” for “secoisolariciresinol diglucoside (SDG)”, “μM).” for “μM) where indicated.”
# HIV-1 jago [3] = experiment: HIV replication in monocyte-derived macrophages (RT activity, p24); assay type: cell-based; settings: for viral replication as indicated by RT activity / viral replication as indicated by p24 concentrations: primary human MDMs, 9 days post-infection, ritonavir 0.1 μM, SDG 50 μM
# Procedure: Primary human MDMs were infected with an HIV isolated from the CSF of a patient with confirmed HAND yielding robust reverse transcriptase activity (A) and p24 concentrations (B) after 9 days post-infection. […] Results have been confirmed in 2 distinct donors, 1 donor is shown. Three technical replicates are analyzed for RT assays (n=3, * p<0.0001).
# (§2) PBMCs can be prepared from laboratory donors. PBMCs are activated with […] phytohemagglutinin for 3 days, and infected with HIV-1 jago, a strain of HIV1 isolated from the CSF of a patient with HAD. On the day of infection, cultures is treated with SDG over a range of doses (0.1, 1, 10, 100 μM SDG), vehicle, or left untreated. Viral replication is assessed by p24 ELISA at 3, 6, 9, 12 and 15 days post-infection. Cell viability of infected PBMCs can be monitored by trypan blue exclusion and p24 levels are normalized to the number of viable cells. The experiment is repeated in 3 donors. MDMs can be prepared as described previously and infected with HIV-1 jago. On the day of inoculation with HIV-1 jago cultures can be treated with 0.1, 1, 10 and 100 μM SDG, vehicle or left untreated. Viral replication is assessed on days 3, 6, 9, 12, and 15 by p24 ELISA. Cell viability is determined by trypan blue exclusion and p24 levels is normalized to the number of viable cells. The experiment is replicated in 3 donors.
# To assess this effect, primary peripheral blood monocytes were harvested from healthy donors and differentiated them into macrophages in vitro. Monocytes were infected with the primary HIV isolate, jago. One day after infection, macrophages were treated with 25 μM or 50 μM SDG, the antiretroviral compound ritonavir (0.1 μM RIT), SDG and ritonavir together, the ritonavir vehicle, DMSO, or with no additional treatment. Supernatant from these macrophages was harvested 3, 6, 9, 12, and 15 days post infection and assayed for HIV reverse transcriptase activity (FIG. 5A, bar graph and FIG. 5B, Line graph).
# HIV-1 jago [4] = experiment: HIV replication in PBMCs (p24 ELISA); assay type: cell-based; settings: dose dependent manner; 0.1, 1, 10, 100 μM SDG
# Procedure: as §2
# cortical rat neurons = experiment: Neurotoxicity and oxidative stress (MAP2, DHE) from HIV-infected macrophage supernatants; assay type: cell-based
# Procedure: Neurons (green) were pre-treated with 50 μM SDG 1 hour prior to exposure to HIV-infected macrophage supernatants (HIVMDM) at dilutions of 1:40 and 1:80. In the absence of SDG, there is marked reduction in MAP2 immunostaining (green) indicating neuronal damage and death (A). Labeling with dihydroethidium (red) indicates the presence of oxidative stress, which is apparent in HIVMDM treated cultures. Nuclei are labeled blue by DAPI. […] MAP2 levels are quantified in top graph (# p<0.01 compared to UT, * p<0.05 compared to respective HIV MDM). Oxidative stress (red-DHE) is quantified in bottom graph (# p<0.001, compared to HIVMDM1:40, p<0.05, compared to HIVMDM1:80, $ p<0.01 compared with UT.
# Primary rat neuroglial cultures (FIG. 10, Panel A) and primary rat neuronal cultures (FIG. 10, Panel B) were treated with Supernatants from HIV-Infected macrophages (Jago) or Mock-infected macrophages (Mock) for 24 hours in the presence or absence of 25 or 50 μM SDG given 60 minutes prior to addition of the HIVMDM. Prior to fixation, cells were incubated with Dihydroethidium (DHE-red) for 30 minutes. Following fixation cells were stained for the neuronal specific marker MAP2 (green) and DAPI (blue). Representative images for each treatment are shown. DHE Fluorescence intensity was quantified from 6 fields for 3 slides per treatment, averaged, and normalized to the area of DAPI. Graphs of the average DHE staining intensity/DAPI area are plotted for each treatment group. The p values were generated using student's two-tailed t-test for equal variance. Bars on graphs represent median values of quantification by ImageJ algorithm. *P<0.05 vs Untreated (UT)-control group and Mock-control group; #P<0.05 vs Jago 1:40 treatment group. The results were obtained from at least three independent experiments.
# [5] = system: nrf2-regulated protective enzymes; experiment: qRT-PCR of antioxidant enzyme gene expression in brain tissues after oral SDG; assay type: in vivo, mice
# Procedure: Indeed, the 1.0 mg dose was associated with a near 2-fold boost of hemeoxygenase 1 expression (HO-1) and quinone oxidoreductase 1 (NQO-1) expression in brain tissues (FIG. 14, Panel B).
# Nrf2 = experiment: Endogenous antioxidant response expression by qRT-PCR and immunoblot; assay type: cell-based; settings: primary rat cortical neurons, SDG 50 μM, 2 or 48 hours
# Procedure: Specifically, protein and RNA from primary rat cortical neurons treated with SDG at 50 μM or left untreated for 2 or 48 hours were analyzed for changes in expression of the endogenous antioxidant response by qRT-PCR and immunoblot.
# Protein and RNA from primary rat cortical neurons treated with SDG at 50 μM or left untreated for 2 or 48 hours were analyzed for changes in expression of the endogenous antioxidant response by qRT-PCR and immunoblot.
# Nrf2/ARE = Nrf2/ARE activation in non-neuronal cell types; assay type: cell-based; settings: lung epithelial, endothelial and fibroblasts
# [6] = DPPH free radical scavenging activity; settings: compared to ascorbic acid and alpha-tocopherol
# rat neuronal cultures = experiment: MTT viability, indirect treatment (media from SDG-treated macrophages); assay type: cell-based; settings: media from HIV-1 or Mock infected macrophages treated with SDG, 24 hours
# Procedure: We performed a MTT (3-(4,5-dimethylthiazol-2-yl)-2,5-diphenyltetrazolium bromide) assay to measure the viability of cells through the production of insoluble formazan. […]. In these indirect studies media from HIV-1 infected or Mock infected macrophages treated with SDG was applied to neuronal cultures for 24 hours. Afterward cell viability was determined by the MTT assay which […] and is an indicator of mitochondrial activity. […] This study is a clear indicator of the non-neurotoxic effects of SDG in vitro.
# [7] = system: rat cortical neuroglial cultures; experiment: MTT viability, direct SDG treatment; assay type: cell-based; settings: 24 hours with SDG
# Procedure: In order to assess the effects on SDG in terms of mitochondrial respiration as an indicator of viability, an MTT assay was performed with rat cortical neuroglial cultures that were treated for 24 hours with SDG.
# CCR5 = experiment: Western blot of CCR5 expression on MDM; assay type: cell-based; settings: SDG for 0 and 6 hours, time-dependent
# Procedure: (§3) The objective of this study was to elucidate the modulatory effects of flaxseed lignans on macrophage expression of coreceptors through western blotting.
# Expression of HIV co-receptor CCR5 on macrophage derived monocytes treated with SDG was evaluated. Following the same treatment protocol, MDM were treated with SDG for 0 and 6 hours.
# CXCR4 = experiment: Western blot of CXCR4 expression on MDM; assay type: cell-based
# Procedure: as §3
# Expression of HIV coreceptor CXCR4 on macrophage derived monocytes treated with SDG was evaluated. Following the same treatment protocol, MDM were treated with SDG for 0 and 6 hours. […] 25 μM to the 25 μM SDG treatment.
# [8] = SDG by oral gavage; cited from earlier work
# [9] = system: brain derived neurotrophic factor (BDNF); settings: SDG by oral gavage; cited from earlier work
# [10] = at least 500 mg SDG/day for approximately 8 weeks; cited from earlier work
# [11] = 50 μM SDG 1 hour prior to HIVMDM 1:40 and 1:80
# [12] = 1.0 mg SDG oral gavage once daily for 4 days, 4 hours post final feeding
structure (smiles),measurement,setting,value
"Cc1c(C)c2c(c(C)c1O)CC[C@@](C)(CCC[C@H](C)CCC[C@H](C)CCCC(C)C)O2 [A-toc, alpha-tocopherol]","concentration needed for half-maximal response (EC50) in reducing power, relative to SDG",[1],~3 fold
"O=C1O[C@H]([C@@H](O)CO)C(O)=C1O [AA, ascorbic acid]","concentration needed for half-maximal response (EC50) in reducing power, relative to SDG",[1],~3 fold
"CC(C)(C)NC(=O)[C@@H]1C[C@@H]2CCCC[C@@H]2CN1C[C@@H](O)[C@H](Cc1ccccc1)NC(=O)[C@H](CC(N)=O)NC(=O)c1ccc2ccccc2n1 [saquinavir, reference compound]",neuronal damage as indicated by loss of MAP2 staining,"[2]; ART compounds alone and in combinations, 72 hours",significant neuronal damage
"CC(C)c1nc(CN(C)C(=O)N[C@H](C(=O)N[C@@H](Cc2ccccc2)C[C@H](O)[C@H](Cc2ccccc2)NC(=O)OCc2cncs2)C(C)C)cs1 [ritonavir, reference compound]",viral replication as indicated by RT activity,HIV-1 jago [3],attenuated viral replication
same,viral replication as indicated by p24 concentrations,HIV-1 jago [3],attenuated viral replication
"COc1cc(C[C@@H](CO[C@@H]2O[C@H](CO)[C@@H](O)[C@H](O)[C@H]2O)[C@H](CO[C@@H]2O[C@H](CO)[C@@H](O)[C@H](O)[C@H]2O)Cc2ccc(O)c(OC)c2)ccc1O [SDG, secoisolariciresinol diglucoside]",attenuation of neuronal damage in response to ART compounds,[2]; 25 μM SDG 1 hour prior to ART compounds alone or in combination,significantly attenuated neuronal damage
same,reduction of ART-induced neuronal damage by combination therapy,[2]; SDG at 25 and 50 μM,reduced ART-induced neuronal damage
same,effect of SDG on ritonavir inhibition of HIV replication (reverse transcriptase activity),"HIV-1 jago [3]; 25 or 50 μM SDG with 0.1 μM ritonavir, 3-15 days post infection",did not block the ability of ritonavir to inhibit HIV replication
same,"HIV replication (reverse transcriptase activity), SDG without ritonavir","HIV-1 jago [3]; 25 or 50 μM SDG, 3-15 days post infection",blocked HIV replication
same,viral replication in HIV-infected macrophages compared with ritonavir,HIV-1 jago [3]; FIG. 2,"reduced viral replication to levels akin to the HIV protease inhibitor, ritonavir"
same,HIV replication in MDMs,"HIV-1 jago [3]; dose dependent manner, 0.1, 1, 10, 100 μM SDG",attenuates HIV replication
same,viral replication as indicated by RT activity,HIV-1 jago [3],attenuated viral replication
same,viral replication as indicated by p24 concentrations,HIV-1 jago [3],attenuated viral replication
same,HIV replication in PBMCs,HIV-1 jago [4],attenuates HIV replication
same,neuron loss (MAP2 immunostaining),cortical rat neurons; [11],protected against neuron loss
same,oxidative stress by DHE,cortical rat neurons; [11],reduced accumulation of oxidative stress
same,protection from HIV-stimulated macrophage-induced neurotoxicity,"cortical rat neurons; 25 or 50 μM SDG 60 minutes prior to HIVMDM, 24 hours, presence or absence of glia",protects neurons
same,DHE staining (free radical production) in HIV-Jago-treated neurons,cortical rat neurons; presence and absence of glia,reduced DHE staining
same,hemeoxygenase 1 (HO-1) expression in brain tissues,[5]; [12],~2 fold
same,quinone oxidoreductase 1 (NQO-1) expression in brain tissues,[5]; [12],~2 fold
same,crossing of the blood-brain barrier,[5]; SDG given orally to mice,crosses the blood-brain barrier
same,"induction of Nrf2 and its targets HO1, NQO1, GST1",Nrf2,"induced Nrf2 in neurons, as well as its prominent targets: HO1, NQO1, and GST1"
same,"activation of Nrf2/ARE, inducing NQO1 and HO1",Nrf2/ARE,activates the Nrf2/ARE
same,DPPH free radical scavenging activity,[6],far superior antioxidant activity
same,"neuronal cell viability (MTT), indirect treatment",rat neuronal cultures,no change in neuronal cell viability
same,"neuronal cell viability (MTT), direct treatment",[7],no change in neuronal cell viability
same,HIV co-receptor CCR5 expression on MDM,CCR5,significant decrease
same,"HIV coreceptor CXCR4 expression on MDM, dose dependence","CXCR4; 12 hour time point, 6. 25 μM to 25 μM SDG",dose-dependent decrease
same,HIV coreceptor CXCR4 expression on MDM,"CXCR4; between the 0 and 6 hour time points, time-dependent",significant decrease
same,chronic stress as measured by immobility time induced by tail suspension stress,[8],decreased chronic stress
same,cortex levels of brain derived neurotrophic factor (BDNF),[9],increase
same,effect on cardiovascular risk factors in humans,[10],positive effect
